Our source for the Tm shift values is PubChem BioAssay AID514 (SGCOxCompounds, 2006).

Sequence of STE20-like serine/threonine-protein kinase (Homo sapiens) (Q9H2G2 whole entry, looked up): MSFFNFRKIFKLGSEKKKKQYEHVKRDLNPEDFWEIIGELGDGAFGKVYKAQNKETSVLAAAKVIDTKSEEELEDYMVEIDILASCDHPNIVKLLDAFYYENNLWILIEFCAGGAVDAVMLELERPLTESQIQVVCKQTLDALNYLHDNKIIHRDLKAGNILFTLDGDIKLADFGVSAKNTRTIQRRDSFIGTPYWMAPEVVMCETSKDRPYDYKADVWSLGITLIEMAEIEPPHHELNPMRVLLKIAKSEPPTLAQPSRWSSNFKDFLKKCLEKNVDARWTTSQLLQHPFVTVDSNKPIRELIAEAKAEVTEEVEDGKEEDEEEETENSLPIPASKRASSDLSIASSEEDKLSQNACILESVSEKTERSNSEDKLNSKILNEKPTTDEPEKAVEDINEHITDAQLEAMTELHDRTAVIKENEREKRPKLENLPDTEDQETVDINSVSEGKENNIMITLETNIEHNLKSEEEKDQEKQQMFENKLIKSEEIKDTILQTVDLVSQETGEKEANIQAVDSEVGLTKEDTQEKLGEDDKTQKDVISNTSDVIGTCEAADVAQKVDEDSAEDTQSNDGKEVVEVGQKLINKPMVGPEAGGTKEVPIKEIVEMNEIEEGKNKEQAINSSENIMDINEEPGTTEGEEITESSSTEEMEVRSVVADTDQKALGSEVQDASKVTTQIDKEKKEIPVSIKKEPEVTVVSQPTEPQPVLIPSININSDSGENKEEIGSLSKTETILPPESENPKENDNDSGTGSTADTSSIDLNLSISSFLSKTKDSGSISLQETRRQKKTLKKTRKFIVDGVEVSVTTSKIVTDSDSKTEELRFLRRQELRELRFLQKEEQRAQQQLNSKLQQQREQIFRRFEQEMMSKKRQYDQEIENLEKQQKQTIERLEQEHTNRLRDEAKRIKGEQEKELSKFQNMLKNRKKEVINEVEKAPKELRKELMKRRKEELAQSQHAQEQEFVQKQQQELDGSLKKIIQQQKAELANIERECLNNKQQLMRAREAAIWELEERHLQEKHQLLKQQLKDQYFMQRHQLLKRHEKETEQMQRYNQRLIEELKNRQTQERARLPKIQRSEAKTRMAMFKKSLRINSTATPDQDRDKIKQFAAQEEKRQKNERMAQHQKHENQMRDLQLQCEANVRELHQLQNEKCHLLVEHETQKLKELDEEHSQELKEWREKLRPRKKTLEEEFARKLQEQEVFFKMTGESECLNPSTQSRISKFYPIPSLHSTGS

This experiment addresses STE20-like serine/threonine-protein kinase (Homo sapiens) (UniProt Q9H2G2). The experiment can be described thus: ligand-induced SLK melting temperature shift – biophysical, purified human kinase, DSF (AID 514). As to conditions: differential scanning fluorimetry Tm shift, at 10 µM, protein 2 µM, buffer 10 mM HEPES, pH 7.5, NaCl 150 mM, active compounds read high. Background: Differential scanning fluorimetry follows unfolding on heating by fluorescence.
Consider `CC(C)[C@@H](CO)Nc1ccc2ncc(-c3cccc(F)c3)n2n1`, for which the Tm shift was 4.2 C. As for `Oc1cccc(-c2cnc3ccc(NCC4CC4)nn23)c1`, the figure is 3.2 C; as for `CC(C)C(CO)Nc1nc(Nc2cc(N)cc(Cl)c2)c2ncn(C(C)C)c2n1` (configuration not stated), 6.2 C; as for `COc1cc2ncnc(Nc3ccc(NC(=O)c4ccccc4)cc3)c2cc1OC`, 5.5 C. Turning to `Clc1cccc(-c2cnc3ccc(NC4CCOCC4)nn23)c1`, the Tm shift is 3.9 C. As for `CN(C)S(O)(O)c1ccc2c(c1)/C(=C/c1cc3c([nH]1)CCCC3)C(=O)N2`, the Tm shift was 6.2 C.

In the case of `COc1ccc(C(=O)c2sc(Nc3cccc(C(F)(F)F)c3)nc2N)cc1`, the Tm shift is 4.5 C. The result for `COc1ccc(Nc2nc(N)c(C(=O)c3ccc(OC)cc3)s2)cc1` reads 3.9 C. The result for `CCN(CC)CCNC(=O)c1c(C)[nH]c(/C=C2\C(=O)Nc3ccc(Cl)cc32)c1C` reads 7.5 C; that for `c1csc(-c2cnc3ccc(NCC4CC4)nn23)c1`, 3.3 C; that for `Clc1cccc(-c2cnc3ccc(NCCc4ccccn4)nn23)c1`, 3.5 C. The result for `NCCNc1ncc(C(N)=O)c(Nc2cccc(C(F)(F)F)c2)n1` reads 3.3 C; that for `N#Cc1cnc2cnc(NCc3cccnc3)cc2c1Nc1ccc(F)c(Cl)c1`, 6.1 C; that for `O=C(Nc1cccc(Nc2cc(Nc3cccc(C(F)(F)F)c3)ncn2)c1)C1CC1`, 3.4 C. For `Nc1cccc(-c2cnn3ccc(Nc4cccc(Cl)c4)nc23)c1`, the Tm shift was 3.7 C. The result for `CC(C)[C@@H](CO)Nc1ccc2ncc(-c3cccc(Cl)c3)n2n1` reads 4.7 C. With `CC(C)[C@@H](CO)Nc1ccc2ncc(-c3cccc(OC(F)(F)F)c3)n2n1`, the Tm shift was 4.3 C.

Take `Cn1cc(/C=C2\C(=O)Nc3ccc(S(N)(=O)=O)cc32)c2ccccc21`: the Tm shift is 5 C.

In the case of `Cc1[nH]c(/C=C2\C(=O)Nc3ccc(S(=O)(=O)N(C)c4cccc(Cl)c4)cc32)c(C)c1C(=O)N1CCN(C)CC1`, the Tm shift is 7.7 C.

In the case of `COc1ccccc1-c1cnc2[nH]c(=O)n(C3CCCC3)c2n1`, the Tm shift is 3.3 C. The result for `Nc1cc2ncnc(Nc3cccc(Br)c3)c2cc1N` reads 5.7 C; that for `NCCCn1cc(C2=C(c3c[nH]c4ccccc34)C(=O)NC2=O)c2ccccc21`, 7.6 C.

For `Oc1cccc(-c2cnc3ccc(NC4CCOCC4)nn23)c1`, the Tm shift was 4.6 C. Consider `CC(C)[C@@H](CO)Nc1ccc2ncc(-c3cccc(C(F)(F)F)c3)n2n1`, for which the Tm shift was 4.8 C. The result for `COc1c(C=O)c(O)cc2c1C(=O)c1ccccc1C2=O` reads 5.4 C; that for `O=C(Nc1cccc(Nc2nccc(Nc3cccc(C(F)(F)F)c3)n2)c1)C1CC1`, 3.7 C; that for `Clc1ccc(-c2cnc3ccc(NC4CCOCC4)nn23)cc1`, 3.1 C. As for `CCC(CO)Nc1ccc2ncc(-c3ccc(O)cc3)n2n1` (configuration not stated), the figure is 3.7 C; as for `Nc1ncnc2c1c(I)cn2[C@@H]1O[C@H](CO)C(O)C1O` (some centres not stated), 4.2 C.

With `Clc1cccc(Nc2ccn3ncc(-c4ccc5c(c4)OCO5)c3n2)c1`, the Tm shift is 3.7 C. The result for `N=C(N)SCCCn1cc(C2=C(c3c[nH]c4ccccc34)C(=O)NC2=O)c2ccccc21` reads 10.6 C; that for `Fc1ccc(-c2cnc3ccc(NC4CCOCC4)nn23)cc1`, 3.6 C; that for `CCCNC(=O)Nc1ccc(Oc2ncnc3cc(OC)c(OC)cc23)cc1Cl`, 5.8 C.

With `CC(C)(C)n1nc(-c2cccc3ccccc23)c2c(N)ncnc21`, the Tm shift was 6.1 C. As for `Cc1nc(N)sc1-c1ccnc(Nc2cccc(-n3oo3)c2)n1`, the figure is 3.6 C.

On to `c1ccc(-c2cnc3ccc(NCc4ccco4)nn23)cc1`, for which the Tm shift is 3.1 C. Consider `O=C(c1ccc(Nc2nccc(-c3cc4ccccc4s3)n2)cc1)N1CCC(N2CCCC2)CC1`, for which the Tm shift was 7.3 C.

On to `CC(C)[C@@H](CO)Nc1ccc2ncc(-c3ccc(C#N)cc3)n2n1`, for which the Tm shift is 3.7 C. As for `CCC(CO)Nc1ccc2ncc(-c3ccc(F)c(Cl)c3)n2n1` (configuration not stated), the figure is 3.8 C; as for `CN(C)CCCn1cc(C2=C(c3c[nH]c4ccccc34)C(=O)NC2=O)c2ccccc21`, 6.8 C; as for `CN(C)CC1CCn2c(c(C3=C(c4cn(C)c5ccccc45)C(=O)NC3=O)c3ccccc32)C1` (configuration not stated), 4.2 C. The result for `COc1cc2ncnc(Nc3cccc(O)c3)c2cc1OC` reads 3.2 C; that for `Nc1cccc(-c2cc3c(Oc4cccc(O)c4)ncnc3[nH]2)c1`, 5.7 C. As for `CC(C)[C@@H](CO)Nc1ccc2ncc(-c3cccc(O)c3)n2n1`, the figure is 4.5 C; as for `CCn1cnc2c(Nc3cccc(Cl)c3)nc(N[C@@H]3CCCC[C@@H]3N)nc21`, 6.4 C; as for `COc1cc2ncnc(Nc3cccc(Br)c3)c2cc1OC`, 6.9 C. In the case of `Nc1nc(Nc2ccc(S(N)(=O)=O)cc2)nn1C(=S)Nc1c(F)cccc1F`, the Tm shift is 12.1 C. The result for `COc1ccc2c(c1)/C(=C/c1cnc[nH]1)C(=O)N2` reads 3.3 C; that for `Oc1ccc(-c2nc(-c3ccc(F)cc3)c(-c3ccncc3)[nH]2)cc1`, 4.4 C. As for `COc1cncc(-c2cnc3ccc(NC4CCOCC4)nn23)c1`, the figure is 3.4 C; as for `OCC(O)CCO/N=C1/C(c2c(O)[nH]c3ccccc23)=Nc2ccccc21` (configuration not stated), 4.7 C; as for `COc1cncc(-c2cnc3ccc(N[C@H](CO)C(C)C)nn23)c1`, 3.1 C. The result for `CC(O)(O)C1(O)C[C@@H]2O[C@@]1(C)n1c3ccccc3c3c4c(c5c6ccccc6n2c5c31)C(=O)NC4` (some centres not stated) reads 6.3 C; that for `CC(=O)c1cccc(-c2cnc3ccc(N[C@H](CO)C(C)C)nn23)c1`, 3.7 C; that for `COc1cc(/C=C/C(=O)CC(=O)/C=C/c2ccc(O)c(OC)c2)ccc1O`, 3.2 C. `O=C1NC(=O)C(c2cn(CCCn3ccnc3)c3ccccc23)=C1Nc1ccccc1`: the Tm shift was 6.3 C. With `ON(O)c1ccc(-c2nc(-c3ccc(F)cc3)c(-c3ccncc3)[nH]2)cc1`, the Tm shift is 5.4 C. As for `Nc1ccc(-c2cnn3ccc(Nc4cccc(Cl)c4)nc23)cc1`, the figure is 4 C. For `O=C1Nc2ccc(Br)cc2/C1=C/c1cc2c([nH]1)CCCC2`, the Tm shift is 3.6 C. The result for `O=C1NC(=O)C(c2c[nH]c3ccccc23)=C1c1c[nH]c2ccccc12` reads 4.6 C; that for `O=Nc1c(-c2c(O)[nH]c3ccc(I)cc23)[nH]c2ccccc12`, 3.7 C. With `O=c1c(O)c(-c2ccc(O)c(O)c2)oc2cc(O)cc(O)c12`, the Tm shift was 5.7 C.

As to `Cn1c(O)c(C2=c3ccccc3=NC2=O)[nH]c1=S`, the Tm shift was 3.4 C.

For the molecule `COc1ccc(Nc2nc(N)c(C(=O)c3ccc(Cl)cc3)s2)cc1`, the Tm shift is 4.4 C. The result for `Fc1cccc(-c2cnc3ccc(NC4CCOCC4)nn23)c1` reads 4.1 C; that for `Oc1ccc(Nc2nccn3c(-c4cn[nH]c4)cnc23)cc1`, 4.7 C; that for `Cc1cc(Nc2nc(-c3ccccc3)nc3ccccc23)n[nH]1`, 6.4 C. As for `COc1ccc(Cl)cc1NC(=O)Nc1cc(C)nc2ccccc12`, the figure is 3.4 C. As for `O=Nc1c(-c2c(O)[nH]c3ccccc23)[nH]c2ccccc12`, the figure is 3.9 C; as for `CNC(=O)c1cc(Oc2ccc(NC(=O)Nc3ccc(C)c(C(F)(F)F)c3)cc2)ccn1`, 8 C; as for `CCC(CO)Nc1ccc2ncc(-c3cccc(OC(F)(F)F)c3)n2n1` (configuration not stated), 3.6 C. Take `O=C1Nc2ccccc2/C1=C\c1cnc[nH]1`: the Tm shift is 3.3 C.

Consider `O=C1NCc2c1c1c3ccccc3[nH]c1c1[nH]c3ccccc3c21`, for which the Tm shift is 5.1 C. For the molecule `Nc1nc(Nc2cccc(Cl)c2)sc1C(=O)c1ccc(F)cc1`, the Tm shift was 3.7 C. As for `COc1cccc(-c2cnn3ccc(Nc4cccc(Cl)c4)nc23)c1`, the figure is 4.7 C; as for `O=C1Nc2ccccc2/C1=C/c1ccc[nH]1`, 3.1 C.

Turning to `CC(C)(C)n1nc(-c2ccc(Cl)cc2)c2c(N)ncnc21`, the Tm shift was 3.6 C. With `Cn1cc(C2=C(c3c4n(c5ccccc35)CCC(CN)C4)C(=O)NC2=O)c2ccccc21` (configuration not stated), the Tm shift was 4.5 C. The result for `NC(=O)Nc1sc(-c2ccccc2)cc1C(N)=O` reads 3.5 C; that for `FC(F)(F)Oc1cccc(-c2cnc3ccc(NC4CCOCC4)nn23)c1`, 3.6 C; that for `O=Nc1c(-c2c(O)[nH]c3cc(Br)ccc23)[nH]c2ccccc12`, 4.6 C.

As for `CCOc1cc2ncnc(Nc3cccc(Br)c3)c2cc1OCC`, the Tm shift was 7.9 C.
